Data published in patent US20230150951A1, “2,5- OR 2,6-DISUBSTITUTED HYDROQUINONE DERIVATIVES WITH AT LEAST ONE CARBOXY, SULFO OR AMIDO GROUP USEFUL AS MEDICAMENTS” (OM PHARMA SA, priority 2020, published 2023).
Like-named read-outs stand apart in the source and are kept apart here.

Experiments:
Type in all cases: cell-based
TGF-beta = experiment: Cytokine release after LPS induction on human whole blood: TGFβ
Procedure: (§1) Aim of this in vitro method is to assess compounds effects on release of a panel of cytokines from whole blood following lipopolysaccharide (LPS) induced inflammatory reaction. Whole blood was incubated with compounds for 1 h prior to LPS induction. Cytokine levels in blood were measured using a multiplex FACS-based panel.
(§2) IC50 values determined for the tested compounds expressed in microM [μM] and the values for the inhibition of cytokines were listed for each compound.
(§3) Effect on cytokines release after LPS induction was performed on the compounds dissolved in DMSO or H2O to reach 10-fold concentrated stock solutions and dissolved in culture media.
(§4) Test system: Whole blood was removed from a single donor (into lithium heparin coated tubes; BD Vacutainer; 367886) and diluted 1:5 with RPMI 1640 (Thermo Fisher, 61870036). Within 30 minutes of sampling, blood was incubated with compounds for 1 h prior to LPS stimulation (O111:B4—Sigma L4391; 10 ng/ml final concentration). Stimulation continued under standard cell culture conditions (37° C. with 5% CO2) overnight (18 h), after which plates were centrifuged and supernatant removed and frozen at −80° C. until used for analyses.
(§5) Dilution of test compounds: 10×concentrated solutions (concerning to the final assay concentrations) of each test compound were prepared with the appropriate solvent (in DMSO or in water). These 10× compound solutions (10 μl) were then added to 90 μl pre-diluted whole blood (whole blood: RPMI1640, 1:5) resulting in the final assay concentration.
(§6) Test method: Diluted whole blood (80 μl) was pre-incubated with compounds (10 μl) to give final assay concentrations of 100, 30, 10, 3, 1, 0.3 and 0.1×10^−6M. Blood was incubated at 37° C. with 5% CO2 for 1 h. LPS was diluted in cell culture media to a concentration of […]; 10 μl was added to the whole blood to give a final concentration of 10 ng/ml. Plates were incubated at 37° C. for 18 h. Plates were centrifuged at 3,000 RPM for 5 minutes at 4° C. and supernatant removed and frozen at −80° C. until FACS analysis was carried out.
(§7) Cytokine release was measured using a custom multiplex system (ELISA Genie) according to manufacturers instructions. Prepared samples were run on an Attune NxT flow cytometer (Thermo Fisher).
(§8) Quantification of cytokine release inhibition: known concentration standards were run as part of the cytokine panel to allow quantification of each cytokine concentration in each sample. This was carried out using FCAP Array v3.0 software.
(§9) Results: The dose response relationship on cytokine release following LPS induction of inflammatory response in whole blood was assessed for all compounds. IC50 values were determined for each compound for a panel of cytokines (GM-CSF, IFN-gamma, IL-1beta, IL-2, IL-4, IL-5, IL-6, IL-8, IL-9, IL-10, IL-12p40, IL-13, IL-17A, IL-17F, IL-18, IL-21, IL-22, IL-33, TGF-beta, TNF-alpha, TNF-beta).

IL-17A = experiment: Cytokine release after LPS induction on human whole blood: IL-17A
Procedure: as §1, §2, §3, §4, §5, §6, §7, §8, §9

FGF-2 = target: T1, FGF-2 (Homo sapiens, UniProt P09038); experiment: FGF-2 induced sprouting of HUVEC, spheroid-based cellular angiogenesis assay; settings: FGF-2 25 ng/mL preincubated with compound, 24 h
T1 construct: purchased Peprotech 100-18C
T1 sequence (P09038 134-288): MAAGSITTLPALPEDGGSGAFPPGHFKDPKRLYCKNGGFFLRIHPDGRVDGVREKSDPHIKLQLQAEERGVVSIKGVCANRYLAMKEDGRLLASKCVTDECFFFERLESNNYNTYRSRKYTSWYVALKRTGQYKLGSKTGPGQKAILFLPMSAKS
In short: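 Spheroids of 400 HUVEC (passage 3–4), embedded in collagen gel, were stimulated with FGF-1, FGF-2 or VEGF-A (final 25 ng/mL) preincubated 30 min at 37°C with compound (final 1.56–100 μM).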

[1] = Homo sapiens, LPS 10 ng/ml, 18 h, read-out: Whole Blood: TGFβ IC50
[2] = human whole blood, inhibition of LPS induced inflammation, read-out: IC50 TGFbeta
[3] = Homo sapiens, LPS 10 ng/ml, 18 h, read-out: Whole Blood: IL-17A IC50
[4] = human whole blood, inhibition of LPS induced inflammation, read-out: IC50 IL-17A

SMILES | IC50 (TGF-beta; [1]) [µM] | IC50 (TGF-beta; [2]) [µM] | IC50 (IL-17A; [3]) [µM] | IC50 (IL-17A; [4]) [µM] | IC50 (FGF-2) [µM] | IC50 (TGF-beta; Homo sapiens, 18 h, read-out: Whole Blood: TGFβ IC50) [µM] | IC50 (TGF-beta; Homo sapiens, read-out: IC50 TGFbeta) [µM] | IC50 (IL-17A; Homo sapiens, 18 h, read-out: Whole Blood: IL-17A IC50) [µM] | IC50 (IL-17A; Homo sapiens, read-out: IC50 IL-17A) [µM]
O=C(O)Cc1cc(O)c(C(=O)Nc2ccccc2-c2nnn[nH]2)cc1O [IIIa-001aTz] | > 100 | 100 | 0.17 | 0.17 | 14 | – | – | – | –
O=C(O)Cc1cc(O)c(C(=O)Nc2c(C(=O)O)cccc2C(=O)O)cc1O [IIIa-013a, 2-(4-(carboxymethyl)-2,5-dihydroxybenzamido)isophthalic acid] | > 100 | 100 | 0.15 | 0.15 | 31 | – | – | – | –
CC(=O)N(Cc1cc(O)c(C(=O)O)cc1O)Cc1cc(O)c(C(=O)O)cc1O [IIIc-057a, N,N-Bis(4-carboxy-2,5-dihydroxyphenylmethyl)acetamide] | > 100 | 100 | 1.32 | 1.32 | 77 | – | – | – | –
O=C(O)c1cc(O)c(CN(Cc2cc(O)c(C(=O)O)cc2O)Cc2cc(O)c(C(=O)O)cc2O)cc1O [IIIc-061a, Tris(4-carboxy-2,5-dihydroxyphenylmethyl)amine] | > 100 | 100 | 0.04 | 0.04 | 7.6 | – | – | – | –
O=C(O)c1ccccc1CNC(=O)c1cc(O)cc(C(=O)O)c1O [IIa-053a, 3-(2-Carboxyphenylmethylaminocarbonyl)-2,5-dihydroxybenzoic acid] | > 100 | 100 | > 100 | 100 | 18 | – | – | – | –
O=C(O)c1cc(NC(=O)c2cc(O)cc(C(=O)Nc3ccc(O)c(C(=O)O)c3)c2O)ccc1O [IIc-007a, 5-(3-(3-carboxy-4-hydroxyphenylaminocarbonyl)-2,5-dihydroxybenzamido)-2-hydroxy benzoic acid] | > 100 | 100 | 0.01 | 0.01 | 91 | – | – | – | –
O=C(O)c1cc(O)ccc1NC(=O)c1cc(O)cc(C(=O)Nc2ccc(O)cc2C(=O)O)c1O [IIc-009a, 2-(3-(2-carboxy-4-hydroxyphenylaminocarbonyl)-2,5-dihydroxybenzamido)-5-hydroxyl benzoic acid] | > 100 | 100 | 0.001 | 0.001 | – | – | – | – | –
O=C(O)c1cc(O)cc(CSCc2cc(O)cc(C(=O)O)c2O)c1O [IVc-058a, 3-((2,5-Dihydroxy-3-carboxyphenyl)methylthiomethyl)-2,5-dihydroxybenzoic acid] | > 100 | 100 | 0.1 | 0.1 | 4.9 | – | – | – | –
O=C(O)c1cc(O)cc(CS(=O)(=O)Cc2cc(O)cc(C(=O)O)c2O)c1O [IVc-059a, 3-((2,5-Dihydroxy-3-carboxyphenyl)methylsulfonylmethyl)-2,5-dihydroxybenzoic acid] | > 100 | 100 | 0.16 | 0.16 | 2.7 | – | – | – | –
COC(=O)c1cc(OC(C)=O)cc(CS(=O)(=O)Cc2cc(OC(C)=O)cc(C(=O)OC)c2OC(C)=O)c1OC(C)=O [IVc-059a-E2-A4] | > 100 | 100 | 0.02 | 0.02 | ≥ 200 | – | – | – | –
O=C(O)c1cc(O)c(C(=O)Nc2ccccc2C(=O)O)cc1O [Ia-001a, 4-(2-carboxyphenylaminocarbonyl)-2,5-dihydroxybenzoic acid] | > 100 | 100 | 0.1 | 0.1 | 39 | – | – | – | –
O=C(O)c1cc(O)c(C(=O)Nc2ccccc2-c2nnn[nH]2)cc1O [Ia-001a-Tz, 4-(2-(1H-tetrazol-5-yl)phenyl-aminocarbonyl)-2,5-dihydroxybenzoic acid] | > 100 | 100 | 0.11 | 0.11 | 20 | – | – | – | –
O=C(O)c1cc(O)c(C(=O)Nc2ccccc2S(=O)(=O)O)cc1O [Ia-001c, 2,5-dihydroxy-4-(2-sulfophenylaminocarbonyl)benzoic acid] | > 100 | 100 | 0.09 | 0.09 | 13 | – | – | – | –
O=C(O)c1cc(O)c(C(=O)Nc2ccc(-c3nnn[nH]3)cc2)cc1O [Ia-003a-Tz, 4-(4-(1H-tetrazol-5-yl)phenyl-aminocarbonyl)-2,5-dihydroxybenzoic acid] | > 100 | 100 | 0.07 | 0.07 | 45 | – | – | – | –
O=C(O)c1cc(NC(=O)c2cc(O)c(C(=O)O)cc2O)cc(C(=O)O)c1 [Ia-015a, 5-(4-carboxy-2,5-dihydroxybenzamido)isophthalic acid] | > 100 | 100 | 0.05 | 0.05 | 9.3 | – | – | – | –
O=C(O)c1cc(NC(=O)c2cc(O)c(C(=O)O)cc2O)cc(NC(=O)c2cc(O)c(C(=O)O)cc2O)c1 [Ib-010a, 3,5-bis(2,5-dihydroxy-4-carboxybenzoylamino)benzoic acid] | > 100 | 100 | 0.42 | 0.42 | 3.8 | – | – | – | –
CCOC(=O)c1cc(NC(=O)c2cc(O)c(C(=O)OCC)cc2O)cc(NC(=O)c2cc(O)c(C(=O)OCC)cc2O)c1 [Ib-010a-E3, ethyl 3,5-bis(2,5-dihydroxy-4-ethoxycarbonylbenzoylamino)benzoate] | > 100 | 100 | 0.52 | 0.52 | – | – | – | – | –
O=C(O)c1cc(NC(=O)c2cc(O)c(C(=O)Nc3ccccc3-c3nnn[nH]3)cc2O)ccc1O [Ic-001a-Tz/004a, 5-(4-(2-(1H-tetrazol-5-yl)phenylaminocarbonyl)-2,5-dihydroxybenzamido)-2-hydroxy benzoic acid] | – | – | – | – | 87 | > 100 | 100 | 0.02 | 0.02
O=C(Nc1ccccc1-c1nnn[nH]1)c1cc(O)c(C(=O)Nc2ccccc2-c2nnn[nH]2)cc1O [Ic-001aTz2, N1,N4-bis(2-(1H-tetrazol-5-yl)phenyl)-2,5-dihydroxyterephthalamide] | > 100 | – | 0.31 | – | 70 | – | – | – | –
O=C(O)c1cc(NC(=O)c2cc(O)c(C(=O)Nc3ccc(O)c(C(=O)O)c3)cc2O)ccc1O [Ic-007a, 5-(4-(3-carboxy-4-hydroxyphenylaminocarbonyl)-2,5-dihydroxybenzamido)-2-hydroxy benzoic acid] | > 100 | 100 | 0.04 | 0.04 | – | – | – | – | –
